Test results from patent publication US11447486B2, “2-amino-benzimidazole derivatives and their use as 5-lipoxygenase and/or prostaglandin E synthase inhibitors” (INSTITUT PASTEUR KOREA, priority 2014, dated 2022).
Read-outs that look alike come from different tables or passages of the source.

Experiments:
human 5-LOX = target: T1, human 5-LOX (Homo sapiens, UniProt P09917); assay: 5-LOX enzyme activity, fluorescence method (5-HPETE, H2DCFDA); type: biochemical
T1 construct: purchased Cayman 60402; host or cells: insect cells (lysate)
T1 sequence (P09917 1-674): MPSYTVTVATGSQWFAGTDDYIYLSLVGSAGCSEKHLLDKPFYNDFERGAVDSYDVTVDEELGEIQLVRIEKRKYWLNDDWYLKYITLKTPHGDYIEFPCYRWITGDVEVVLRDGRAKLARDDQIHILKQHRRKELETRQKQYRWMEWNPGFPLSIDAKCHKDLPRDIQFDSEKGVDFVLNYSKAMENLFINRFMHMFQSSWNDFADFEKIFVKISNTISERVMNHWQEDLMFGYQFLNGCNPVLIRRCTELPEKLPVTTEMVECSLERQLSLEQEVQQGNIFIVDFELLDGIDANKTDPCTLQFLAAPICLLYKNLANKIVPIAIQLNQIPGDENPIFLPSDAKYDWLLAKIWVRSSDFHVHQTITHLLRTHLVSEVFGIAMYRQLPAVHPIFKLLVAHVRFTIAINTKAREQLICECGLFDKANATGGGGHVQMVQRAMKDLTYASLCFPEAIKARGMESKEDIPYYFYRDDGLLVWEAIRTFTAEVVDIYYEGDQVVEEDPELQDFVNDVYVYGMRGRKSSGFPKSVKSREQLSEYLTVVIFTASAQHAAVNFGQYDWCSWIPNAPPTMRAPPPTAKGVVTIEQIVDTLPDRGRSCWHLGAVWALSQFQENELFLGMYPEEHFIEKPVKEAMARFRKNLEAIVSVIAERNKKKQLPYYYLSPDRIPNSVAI
Outline: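 Compound (0.5 nM to 10 uM) pre-incubated 5 min with enzyme; reaction started with ATP (100 uM final) and arachidonic acid (3 uM final). All steps at room temperature, fluorescence read-out.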

[1] = test system: Rat basophilic leukemia (RBL) cells; assay: LTB4 secretion assay in RBL (rat basophilic leukemia cells); type: cell-based; conditions: Rattus norvegicus
Outline: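 Cells seeded 2×10^4/well the day before, then pre-incubated 15 min at 37 °C in EMEM/0.5% FBS with compound (5 nM to 100 uM). Stimulation with 2.5 uM arachidonic acid plus 5 uM A23187 (final) for 10 min at 37 °C; LTB4 in supernatant quantified by EIA.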

Rat whole blood (RWB) = assay: LTB4 secretion assay in RWB (rat whole blood); type: cell-based; conditions: Rattus norvegicus
Outline: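 Heparinized blood from male Sprague Dawley rats (6-9 weeks) diluted 1:1 in RPMI, pre-incubated 15 min at 37 °C with compound (2.5 nM to 50 uM). Stimulated with 10 uM calcium ionophore A23187 for 10 min at 37 °C, stopped with ice-cold PBS; LTB4 in supernatant quantified by EIA.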

HeLa S3 cells = assay: PGE2 inhibition assay (HTRF) in TNF-α stimulated HeLa S3 cells; type: cell-based; conditions: Homo sapiens; PGE2, 10 uM compound, HeLa S3 stimulated with TNF-α
Protocol: Human epitheloid cervix carcinoma HeLa S3 cells (2×10^6cells/ml) were seeded with modified F-12K buffer medium pH 7.4 in tissue culture plate and incubated for overnight at 37° C. and 5% CO2. Then medium was changed into new medium contained 10 uM testing compounds or 0.1% DMSO and incubated overnight. After incubation, cells were stimulated with 30 nM TNF-α (Tumor necrosis factor-α) for 16 h. For determination of PGE2, the supernatant was measured by PGE2 HTRF (Homogeneous Time Resolved Fluorescence) assay kit Inhibition of PGE2 by compounds is calculated as a percentage of activity in the presence of drug versus the activity in the stimulator TNF-α.

Row | SMILES | IC50 (human 5-LOX; read-out: 5-LO (IC50)) [µM] | melting point | EC50 ([1]; RBL) [µM] | EC50 (Rat whole blood (RWB)) [µM] | inhibition at 10 µM (HeLa S3 cells) [%] | IC50 (human 5-LOX; 5-LO (IC50, uM)) [µM] | EC50 [1] [µM]
1 | Cc1cnn(-c2nc3cc(N4CCN(c5ccc(F)cc5)CC4)ccc3[nH]2)c1 [Compound 25] | > 10 | > 220 °C | – | – | – | – | –
2 | O=C(Nc1nc2cc(NCc3cnc[nH]3)ccc2[nH]1)c1ccc(F)cc1 [Compound 27] | 1 to 10 | > 142.9 °C (dec.) | > 20 | – | – | – | –
3 | Nc1ccc2[nH]c(N3CCC(Oc4ccc(F)cc4)CC3)nc2c1 [Compound 34] | < 1 | 193.3 to 205 °C | 10 to 20 | – | – | – | –
4 | Nc1ccc2c(c1)nc(N)n2CCc1ccc(F)cc1 [Compound 42] | 1 to 10 | 178.2 to 179.6 °C | 10 to 20 | – | – | – | –
5 | CN(C)c1nc2cc(N)ccc2n1CCOc1ccc(OC(F)(F)F)cc1 [Compound 43] | 1 to 10 | 60.8 to 61.6 °C | < 10 | > 20 | – | – | –
6 | Cn1c(NCCOc2ccc(OC(F)(F)F)cc2)nc2cc(N)ccc21 [Compound 53] | < 1 | – | < 10 | < 10 | > 70 | – | –
7 | Nc1ccc2[nH]c(N3CCC(Oc4ccc(OC(F)(F)F)cc4)C3)nc2c1 (stereo not drawn) [Compound 54] | < 1 | – | < 10 | < 10 | > 70 | – | –
8 | CN(C)c1ccc2[nH]c(NCc3ccc(Oc4ccccc4)cc3)nc2c1 [Compound 98] | < 1 | 116.8 to 118.7 °C | < 10 | < 10 | – | – | –
9 | Nc1ccc2[nH]c(NCc3ccc(Oc4ccc(F)c(Cl)c4)cc3)nc2c1 [Compound 102] | < 1 | 58.4 to 66.6 °C | < 10 | < 10 | – | – | –
10 | CC(Cc1ccc(Cl)cc1Cl)Nc1nc2cc(N)ccc2[nH]1 (stereo not drawn) [Compound 107] | < 1 | > 200.9 °C | < 10 | > 20 | – | – | –
11 | CC(C)(Nc1ccc2[nH]c(NCc3ccc(Oc4ccccc4)cc3)nc2c1)C(N)=O [Compound 109] | < 1 | > 173 °C | < 10 | < 10 | – | – | –
12 | Nc1ccc2nc(N)n(Cc3ccc(Oc4ccc(Cl)cc4)cc3)c2c1 [Compound 111] | < 1 | 156.4 to 158.5 °C | < 10 | < 10 | – | – | –
13 | Nc1ccc2[nH]c(NCc3ccc(N4CCN(c5ccc(OC(F)(F)F)cc5)CC4)cc3)nc2c1 [Compound 114] | < 1 | > 220 °C | 10 to 20 | > 20 | – | – | –
14 | Nc1ccc2[nH]c(NCc3ccc(N4CCC(c5ccc(Cl)cc5)CC4)cc3)nc2c1 [Compound 115] | < 1 | > 220 °C | > 20 | – | – | – | –
15 | CC(C)(C)c1ccc(CNc2nc3ccc(N)cc3[nH]2)cc1 [Compound 116] | < 1 | > 130.8 °C | < 10 | 10 to 20 | – | – | –
16 | CC(C)(C)c1ccc(Oc2ccc(CNc3nc4cc(N)ccc4[nH]3)cc2)cc1 [Compound 117] | < 1 | > 207.2 °C | 10 to 20 | – | – | – | –
17 | CC(C)(Nc1ccc2[nH]c(NCc3ccc(Oc4ccc(Cl)cc4)cc3)nc2c1)C(N)=O [Compound 118] | < 1 | > 113.2 °C | < 10 | > 20 | – | – | –

Row | SMILES | IC50 (human 5-LOX; read-out: 5-LO (IC50)) [µM] | melting point | EC50 ([1]; RBL) [µM] | EC50 (Rat whole blood (RWB)) [µM] | inhibition at 10 µM (HeLa S3 cells) [%] | IC50 (human 5-LOX; 5-LO (IC50, uM)) [µM] | EC50 [1] [µM]
18 | c1ccc(Oc2ccc(CNc3nc4cc(NC5CCOC5)ccc4[nH]3)cc2)cc1 (stereo not drawn) [Compound 119] | < 1 | > 54.3 °C | < 10 | < 10 | – | – | –
19 | Nc1ccc2nc(NC3CCCC3)n(CCOc3ccc(OC(F)(F)F)cc3)c2c1 [Compound 120] | < 1 | 200.7 to 201.3 °C | < 10 | < 10 | – | – | –
20 | CC(C)(C)Oc1ccc(CNc2nc3ccc(N)cc3[nH]2)cc1 [Compound 121] | < 1 | > 59.7 °C | < 10 | > 20 | – | – | –
21 | Nc1ccc2[nH]c(NCc3ccc(Oc4cccc(Cl)c4)cc3)nc2c1 [Compound 122] | < 1 | > 160.8 °C | < 10 | < 10 | – | – | –
22 | Nc1cc2nc(NCc3ccc(Oc4ccc(Cl)cc4)cc3)[nH]c2cc1Cl [Compound 147] | < 1 | 191.4 to 193.5 °C | < 10 | < 10 | – | – | –
23 | Nc1ccc2[nH]c(NCc3ccc(S(=O)(=O)Nc4ccc(Cl)cc4)cc3)nc2c1 [Compound 151] | < 1 | > 200 °C | > 20 | – | – | – | –
24 | Nc1ccc2nc(NCc3ccc(Cl)cn3)[nH]c2c1 [Compound 158] | – | 101.8 to 104 °C | – | – | – | < 1 | > 20
25 | Cn1c(NCc2ccc(Oc3ccc(F)cn3)cc2)nc2ccc(N)cc21 [Compound 301] | < 1 | 121.4 to 124.6 °C | < 10 | – | – | – | –
26 | Cn1c(NCc2ccc(OCc3ccc(Cl)cn3)cc2)nc2ccc(N)cc21 [Compound 314] | < 1 | 96.6 to 100.9 °C | 10 to 20 | – | – | – | –
27 | Cn1c(NCc2ccc(Oc3nc4ccc(Cl)cc4n3C)cc2)nc2ccc(NC3COC3)cc21 [Compound 423] | < 1 | 138.9 to 140.8 °C | < 10 | – | – | – | –
28 | Cn1c(NCc2ccc(Oc3ccc4c(Cl)cccc4n3)cc2)nc2ccc(NC3COC3)cc21 [Compound 425] | < 1 | 102.3 to 107.3 °C | < 10 | – | – | – | –
29 | CCC(Nc1nc2ccc(NC3COC3)cc2n1C)c1ccc(Oc2ccc(C(F)(F)F)cn2)cc1F (stereo not drawn) [Compound 550] | < 1 | – | < 10 | < 10 | – | – | –
30 | Cn1c(NCc2ccc(Oc3ccc(C(F)(F)F)cn3)cc2)nc2c(F)cc(NC3COC3)cc21 [Compound 552] | < 1 | – | < 10 | 10 to 20 | – | – | –
31 | Cn1c(NCc2ccc(Oc3ccc(Cl)cn3)cc2)nc2c(F)cc(NC3COC3)cc21 [Compound 553] | < 1 | – | < 10 | < 10 | – | – | –
32 | Cn1c(NCc2ccc(Oc3ncc(Cl)cn3)cc2)nc2c(F)cc(NC3COC3)cc21 [Compound 554] | < 1 | – | 10 to 20 | < 10 | – | – | –
33 | CCn1c(NCc2ccc(Oc3ncc(Cl)cn3)cc2)nc2c(F)cc(NC3COC3)cc21 [Compound 555] | < 1 | – | 10 to 20 | 10 to 20 | – | – | –
